According to patent US11008331B2, “Hepatitis B virus surface antigen inhibitor” (FUJIAN COSUNTER PHARMACEUTICAL CO., LTD., priority 2017, dated 2021):
Read-outs that look alike come from different tables or passages of the source.

Assays:
[1] = system: HBV surface antigen (HBsAg); assay: HBV in vitro test: HBV surface antigen in HepG2.2.15 culture supernatant by ELISA; assay type: cell-based, Hepatitis B Virus (HBV)
Method: (§1) The content of HBV DNA in HepG2. 2. 15 cell culture supernatant was detected by a real-time quantitative qPCR assay (real time-qPCR), and the content of HBV surface antigen was detected by enzyme-linked immunosorbent assay (ELISA), the compound EC50 value was used as an index to evaluate the inhibitory effect of the compound on HBV.
(§2) 3.1. HepG2. 2. 15 cells (4×10^4 cells/well) was plated into a 96-well plate and cultured overnight at 37° C., 5% CO2.
(§3) 3.2. The next day, the compound was diluted to 8 concentrations, 3-folds gradients dilution. The compound of different gradients were added into the culture well, double duplicated the wells. The final concentration of the DMSO was 0.5% in the culture solution. 10 μM ETV was used as 100% inhibition control; 0.5% of DMSO was used as 0% inhibition control.
(§4) 3.3. On the fifth day, the culture solution was replaced by fresh culture solution containing the compound.
(§5) 3.4. On the eighth day, the culture solution in the culture well was collected, and the content of hepatitis B virus S antigen was measured by ELISA with partial samples; and still partial samples was taken for extraction of DNA using high-throughput DNA purification kit (Qiagen-51162).
3.9. Content determination of hepatitis B virus S antigen measured by ELISA
50 μL sample and standard sample were taken and added into the reaction plate respectively, then 50 μL enzyme conjugate was added into each of the wells, shaked to mix well, then kept in warm bath at 37° C. for 60 min, and the plate was washed with cleansing solution for 5 times, 50 μL luminescent substrate was added into each wells, mixed well and reacted at r.t. for 10 min in the dark, the chemiluminescence intensity was finally detected with ELISA. The inhibition percentage of each compound was calculated by the following formula: inhibition rate (%)=(1−value in sample/DMSO control group value)×100%. The dose-response curves was fitted by GraphPad Prism software, and the 50% inhibited concentration EC50 value of the compound against HBV was calculated.

HBV DNA = assay: HBV in vitro test: HBV DNA in HepG2.2.15 culture supernatant by real time-qPCR; assay type: cell-based, Hepatitis B Virus (HBV)
Method: as §1, §2, §3, §4, §5
3.6. 15 μL reaction mixture was added into each well of the 96-well PCR plate, then in each well was added 10 μL sample DNA or standard product of HBV DNA.
3.7. The qPCR plate was sealed with optical sealing film, centrifuged at 1500 rpm for 2 minutes, and then the HBV copy number of each sample was quantitatively detected by fluorescence quantitative qPCR. The operation procedure of qPCR is as follows
Calculation of the Inhibition Percentage % Inh.=(1−value in the sample/DMSO control group value)×100%.
The dose-response curves was fitted by GraphPad Prism software, and the 50% inhibited concentration EC50 value of the compound against HBV was calculated.

[2] = Hepatitis B virus, HepG2.2.15, read-out: HBsAg experimental results EC50
[3] = Hepatitis B virus, HepG2.2.15, HepG2. 2. 15 cell culture supernatant, collected on the eighth day, real time-qPCR, read-out: HBV-DNA experimental results EC50
[4] = Hepatitis B virus, HepG2.2.15, read-out: HBV-DNA experimental results EC50

| SMILES | EC50 [1, 2] | EC50 (HBV DNA; [3]) | EC50 (HBV DNA; [4]) | EC50 ([1]; HepG2. 2. 15 cell culture supernatant, collected on the eighth day, ELISA, read-out: HBsAg experimental results EC50) | EC50 (HBV DNA; HepG2. 2. 15 cell culture supernatant, collected on the eighth day, real time-qPCR, read-out: HBV-DNA experimental results EC50) |
| --- | --- | --- | --- | --- | --- |
| COc1cc2c(cc1Cl)-c1cc(=O)c(C(=O)O)cn1C(c1ccccc1)O2 (stereo not drawn) [Embodiment 1] | 0.0276 µM | 0.0118 µM |  |  |  |
| CC(C)(CO)COc1cc2c(cc1Cl)-c1cc(=O)c(C(=O)O)cn1C(c1ccccc1)O2 (stereo not drawn) [Embodiment 2] | 0.0558 µM | 0.0345 µM |  |  |  |
| COCCOc1cc2c(cc1Cl)-c1cc(=O)c(C(=O)O)cn1C(c1ccccc1)O2 (stereo not drawn) [Embodiment 3] | 0.0476 µM | 0.0276 µM |  |  |  |
| O=C(O)c1cn2c(cc1=O)-c1cc(Cl)c(OCC(F)F)cc1OC2c1ccccc1 (stereo not drawn) [Embodiment 4] | 0.0319 µM | 0.015 µM |  |  |  |
| O=C(O)c1cn2c(cc1=O)-c1cc(Cl)c(OCCN3CCOCC3)cc1OC2c1ccccc1 (stereo not drawn) [Embodiment 5] | 0.05 µM | 0.0151 µM |  |  |  |
| O=C(O)c1cn2c(cc1=O)-c1cc(Cl)c(OCCCO)cc1OC2c1ccccc1 (stereo not drawn) [Embodiment 6] | 0.0203 µM | 0.00604 µM |  |  |  |
| O=C(O)c1cn2c(cc1=O)-c1cc(Cl)c(OCCO)cc1OC2c1ccccc1 (stereo not drawn) [Embodiment 7] | 0.299 µM | 0.211 µM |  |  |  |
| O=C(O)c1cn2c(cc1=O)-c1cc(Cl)c(OCCCCCO)cc1OC2c1ccccc1 (stereo not drawn) [Embodiment 8] | 0.0662 µM | 0.0208 µM |  |  |  |
| C#CCOc1cc2c(cc1Cl)-c1cc(=O)c(C(=O)O)cn1C(c1ccccc1)O2 (stereo not drawn) [Embodiment 9] | 0.138 µM | 0.0741 µM |  |  |  |
| O=C(O)c1cn2c(cc1=O)-c1cc(Cl)c(OCC(F)(F)CO)cc1OC2c1ccccc1 (stereo not drawn) [Embodiment 10] | 0.102 µM | 0.051 µM |  |  |  |
| CS(=O)(=O)CCCOc1cc2c(cc1Cl)-c1cc(=O)c(C(=O)O)cn1C(c1ccccc1)O2 (stereo not drawn) [Embodiment 11] | 0.0739 µM | 0.0408 µM |  |  |  |
| O=C(O)c1cn2c(cc1=O)-c1cc(Cl)c(OCCCN3CCCC3=O)cc1OC2c1ccccc1 (stereo not drawn) [Embodiment 12] | 0.213 µM | 0.0781 µM |  |  |  |
| COCCCOc1cc2c(cc1Cl)-c1cc(=O)c(C(=O)O)cn1C(c1nccs1)O2 (stereo not drawn) [Embodiment 14] | 0.00688 µM |  | 0.00688 µM |  |  |
| COCCCOc1cc2c(cc1Cl)-c1cc(=O)c(C(=O)O)cn1C(c1ccccc1Cl)O2 (stereo not drawn) [Embodiment 15] |  | 0.0082 µM |  |  |  |
| COCCCOc1cc2c(cc1Cl)-c1cc(=O)c(C(=O)O)cn1C(c1cccc(Cl)c1)O2 (stereo not drawn) [Embodiment 16] | 0.0453 µM |  | 0.0453 µM |  |  |
| COCCCOc1cc2c(cc1Cl)-c1cc(=O)c(C(=O)O)cn1C(c1ccc(Cl)cc1)O2 (stereo not drawn) [Embodiment 17] | 0.254 µM |  | 0.254 µM |  |  |
| COCCCOc1cc2c(cc1Cl)-c1cc(=O)c(C(=O)O)cn1C(c1ccc(F)cc1)O2 (stereo not drawn) [Embodiment 18] | 0.0737 µM | 0.0408 µM |  |  |  |
| COCCCOc1cc2c(cc1Cl)-c1cc(=O)c(C(=O)O)cn1C(c1ccccc1F)O2 (stereo not drawn) [Embodiment 19] | 0.0209 µM | 0.00388 µM |  |  |  |
| COCCCOc1cc2c(cc1Cl)-c1cc(=O)c(C(=O)O)cn1C(c1cccc(F)c1)O2 (stereo not drawn) [Embodiment 20] | 0.0225 µM | 0.011 µM |  |  |  |
| COCCCOc1cc2c(cc1Cl)-c1cc(=O)c(C(=O)O)cn1C(c1ccccc1C)O2 (stereo not drawn) [Embodiment 21] | 0.0163 µM | 0.00712 µM |  |  |  |
| COCCCOc1cc2c(cc1Cl)-c1cc(=O)c(C(=O)O)cn1C(c1cccc(C)c1)O2 (stereo not drawn) [Embodiment 22] | 0.0382 µM | 0.0206 µM |  |  |  |

| SMILES | EC50 [1, 2] | EC50 (HBV DNA; [3]) | EC50 (HBV DNA; [4]) | EC50 ([1]; HepG2. 2. 15 cell culture supernatant, collected on the eighth day, ELISA, read-out: HBsAg experimental results EC50) | EC50 (HBV DNA; HepG2. 2. 15 cell culture supernatant, collected on the eighth day, real time-qPCR, read-out: HBV-DNA experimental results EC50) |
| --- | --- | --- | --- | --- | --- |
| COCCCOc1cc2c(cc1Cl)-c1cc(=O)c(C(=O)O)cn1C(c1ccc(C)cc1)O2 (stereo not drawn) [Embodiment 23] | 0.127 µM | 0.0859 µM |  |  |  |
| COCCCOc1cc2c(cc1Cl)-c1cc(=O)c(C(=O)O)cn1C(c1cc(F)cc(OC)c1)O2 (stereo not drawn) [Embodiment 24] | 0.0355 µM | 0.0593 µM |  |  |  |
| COCCCOc1cc2c(cc1Cl)-c1cc(=O)c(C(=O)O)cn1C(c1cc(F)ccc1OC)O2 (stereo not drawn) [Embodiment 25] | 0.0359 µM | 0.0187 µM |  |  |  |
| COCCCOc1cc2c(cc1Cl)-c1cc(=O)c(C(=O)O)cn1C(c1cc(OC)ccc1F)O2 (stereo not drawn) [Embodiment 26] | 0.101 µM | 0.152 µM |  |  |  |
| COCCCOc1cc2c(cc1Cl)-c1cc(=O)c(C(=O)O)cn1C(c1c(F)cccc1Cl)O2 (stereo not drawn) [Embodiment 27] | 0.0391 µM | 0.0236 µM |  |  |  |
| COCCCOc1cc2c(cc1Cl)-c1cc(=O)c(C(=O)O)cn1C(c1nc(C)c(C)s1)O2 (stereo not drawn) [Embodiment 28] | 0.152 µM | 0.278 µM |  |  |  |
| COCCCOc1cc2c(cc1Cl)-c1cc(=O)c(C(=O)O)cn1C(c1c(F)cccc1F)O2 (stereo not drawn) [Embodiment 29] | 0.0122 µM | 0.00411 µM |  |  |  |
| COCCCOc1cc2c(cc1Cl)-c1cc(=O)c(C(=O)O)cn1C(c1cc(F)cc(F)c1)O2 (stereo not drawn) [Embodiment 30] | 0.0282 µM | 0.0185 µM |  |  |  |
| COCCCOc1cc2c(cc1Cl)-c1cc(=O)c(C(=O)O)cn1C(c1cccc(F)c1F)O2 (stereo not drawn) [Embodiment 31] | 0.203 µM | 0.0905 µM |  |  |  |
| COCCCOc1cc2c(cc1Cl)-c1cc(=O)c(C(=O)O)cn1C(c1cc(F)ccc1F)O2 (stereo not drawn) [Embodiment 32] | 0.0711 µM | 0.0352 µM |  |  |  |
| COCCCOc1cc2c(cc1Cl)-c1cc(=O)c(C(=O)O)cn1C(c1ccc(F)cc1F)O2 (stereo not drawn) [Embodiment 33] | 0.0103 µM | 0.0126 µM |  |  |  |
| COCCCOc1cc2c(cc1Cl)-c1cc(=O)c(C(=O)O)cn1C(c1ccc(OC)cc1F)O2 (stereo not drawn) [Embodiment 34] | 0.0296 µM | 0.0213 µM |  |  |  |
| COCCCOc1cc2c(cc1Cl)-c1cc(=O)c(C(=O)O)cn1C(c1cnsc1C)O2 (stereo not drawn) [Embodiment 35] |  |  |  | 0.011 µM | 0.0251 µM |
| COCCCOc1cc2c(cc1Cl)-c1cc(=O)c(C(=O)O)cn1C(c1cnsc1)O2 (stereo not drawn) [Embodiment 37] | 0.0266 µM | 0.0106 µM |  |  |  |
| COCCCOc1cc2c(cc1Cl)-c1cc(=O)c(C(=O)O)cn1C(c1cncs1)O2 (stereo not drawn) [Embodiment 38] | 0.0123 µM | 0.0204 µM |  |  |  |
| COCCCOc1cc2c(cc1Cl)-c1cc(=O)c(C(=O)O)cn1C(c1ncc(C)s1)O2 (stereo not drawn) [Embodiment 41] | 0.058 µM | 0.0178 µM |  |  |  |
| Cc1csc(C2Oc3cc(OCC4CC4)c(Cl)cc3-c3cc(=O)c(C(=O)O)cn32)n1 (stereo not drawn) [Embodiment 42] | 0.00788 µM | 0.00219 µM |  |  |  |
| COCCCOc1cc2c(cc1OC)-c1cc(=O)c(C(=O)O)cn1C(c1cscn1)O2 (stereo not drawn) [Embodiment 43] | 0.0154 µM | 0.0194 µM |  |  |  |
| O=C(O)c1cn2c(cc1=O)-c1cc(Cl)c(OCC3CC3)cc1OC2c1ncc(Cl)s1 (stereo not drawn) [Embodiment 44] | 0.212 µM | 0.129 µM |  |  |  |
| COCCCOc1cc2c(cc1Cl)-c1cc(=O)c(C(=O)O)cn1C(c1csc(Cl)c1Cl)O2 (stereo not drawn) [Embodiment 48] | 0.103 µM | > 1 µM |  |  |  |
